The results in this text go back to PubChem BioAssay (NCI).

Test systems include SF-295 CNS; CCRF-CEM leukemia; 786-0 renal; UACC-62 melanoma; MALME-3M melanoma; NCI-H522 lung; UO-31 renal; A498 renal; ACHN renal; OVCAR-3 ovarian; OVCAR-8 ovarian; LOX IMVI melanoma; HCT-15 colon; BT-549 breast; MDA-MB-435; SNB-75 CNS; NCI/ADR-RES ovarian; A549 NSCLC; COLO 205 colon; NCI-H226 lung.
Assay in all cases: inhibition of tumour cell growth, NCI panel, 48 h

SMILES strings stand for the structures.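 Test compounds were applied to cells in 96-well plates for 48 hours at 5 doses. TGI denotes the concentration required for complete inhibition of growth.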

For the compound `Cn1c(SCc2c[nH]c3ccccc23)nnc1-c1ccc(Cl)cc1Cl`, the TGI came out at 27.2 µM in the assay on SF-295 CNS; 45.4 µM in the assay with CCRF-CEM leukemia; 68.6 µM in the assay on 786-0 renal; 39.3 µM with UACC-62 melanoma; 45.8 µM in the assay on MALME-3M melanoma; 45.9 µM in the assay with NCI-H522 lung. Besides, the TGI is 82.9 µM in the assay with UO-31 renal; 86.3 µM in the assay on A498 renal; 96.8 µM in the assay on ACHN renal; 35.1 µM with OVCAR-3 ovarian; over 100 µM in the assay with OVCAR-8 ovarian; 20 µM in the assay with LOX IMVI melanoma. In addition, the TGI with HCT-15 colon was over 100 µM; in the assay with BT-549 breast it was 87.5 µM; in the assay on MDA-MB-435, 12 µM; in the assay on SNB-75 CNS, 25.9 µM; in the assay with NCI/ADR-RES ovarian, 27.3 µM; with A549 NSCLC, 48.5 µM. For the same compound, in the assay with COLO 205 colon, the TGI turned out to be 27.4 µM.

For the compound `Cc1cc(C)nc(NC(=S)Nc2ccc(Cl)cc2)c1`, the TGI in the assay on SF-295 CNS was over 100 µM; in the assay on CCRF-CEM leukemia it was over 100 µM; in the assay on 786-0 renal, 80.2 µM; with UACC-62 melanoma, over 100 µM; in the assay with MALME-3M melanoma it was over 100 µM; in the assay on NCI-H522 lung, 39.1 µM. For the same compound, the TGI with UO-31 renal was over 100 µM; with A498 renal, over 100 µM; in the assay with OVCAR-3 ovarian, over 100 µM; in the assay with OVCAR-8 ovarian it was 71.5 µM; with NCI-H226 lung it was over 100 µM; in the assay on LOX IMVI melanoma, over 100 µM. Moreover, the TGI in the assay with HCT-15 colon is over 100 µM; with BT-549 breast, over 100 µM; in the assay with MDA-MB-435 it was over 100 µM; in the assay with SNB-75 CNS, 63.7 µM; in the assay with NCI/ADR-RES ovarian it was over 100 µM; in the assay with A549 NSCLC, over 100 µM. In the assay with COLO 205 colon, this compound displayed a TGI of over 100 µM.

Consider `COC(=O)[C@]1(C)[C@H]2C[C@H]3O[C@H]4[C@H](O)[C@@H](O)OC(CC(O)C(C5=CC(=O)OC5)C(C5=CC(=O)OC5)C(O)CC56CCCCC7[C@@H](C)[C@H](C[C@H]8[C@](C)(C(=O)OC)[C@H](O)CC[C@]78C)O[C@H]([C@@H](O)[C@H](O)O5)[C@H]6O)(CCCCC([C@@H]3C)[C@]2(C)CC[C@@H]1O)[C@H]4O` (stereo partly specified), for which the TGI stood at 0.333 µM with CCRF-CEM leukemia; 0.225 µM with 786-0 renal; 0.779 µM with UACC-62 melanoma; 0.407 µM with MALME-3M melanoma; 0.0558 µM in the assay with NCI-H522 lung; 0.442 µM in the assay on UO-31 renal. Also, the TGI in the assay with A498 renal was 0.737 µM; in the assay with OVCAR-3 ovarian, 1.05 µM; in the assay on OVCAR-8 ovarian, 1.2 µM; with NCI-H226 lung it was 5.02 µM; in the assay with LOX IMVI melanoma, 1.17 µM; in the assay with HCT-15 colon it was 1.11 µM. The TGI in the assay on BT-549 breast worked out at 0.305 µM; with MDA-MB-435, 1.1 µM; in the assay on SNB-75 CNS, 1.04 µM; in the assay on NCI/ADR-RES ovarian it was 0.286 µM; in the assay on A549 NSCLC it was 0.182 µM; in the assay with COLO 205 colon it was 1.33 µM.

Regarding `COC1(c2ccccc2)NC(=S)NN=C1c1ccccc1` (stereo unspecified), the TGI with SF-295 CNS is 99.3 µM; with CCRF-CEM leukemia it was over 100 µM; in the assay with 786-0 renal, over 100 µM; in the assay with UACC-62 melanoma, over 100 µM; with MALME-3M melanoma, over 100 µM; with NCI-H522 lung it was 73.8 µM. The TGI with UO-31 renal was over 100 µM; with A498 renal, over 100 µM; with ACHN renal, over 100 µM; with OVCAR-3 ovarian it was 84.6 µM; in the assay with OVCAR-8 ovarian, 84 µM; in the assay with LOX IMVI melanoma it was over 100 µM. Further, the TGI in the assay on HCT-15 colon is 64.2 µM; with BT-549 breast it was 82.8 µM; in the assay with MDA-MB-435 it was 39.1 µM; in the assay on SNB-75 CNS, 97.5 µM; in the assay on NCI/ADR-RES ovarian, 37.7 µM; with A549 NSCLC, over 100 µM. The compound further yielded a TGI with COLO 205 colon of 49.8 µM.

With `CC(=O)Oc1ccc(/C=C/C(=O)NCCOC(=O)/C=C/c2ccc(OC(C)=O)c(OC(C)=O)c2)cc1OC(C)=O`, the TGI in the assay on SF-295 CNS is 76.7 µM; in the assay on 786-0 renal, 84.9 µM; in the assay on UACC-62 melanoma, 49.1 µM; with MALME-3M melanoma it was over 100 µM; in the assay with NCI-H522 lung, 29.6 µM; in the assay with UO-31 renal, 83.3 µM. Besides, the TGI in the assay on A498 renal is over 100 µM; in the assay on ACHN renal, over 100 µM; in the assay on OVCAR-3 ovarian, 42 µM; in the assay on OVCAR-8 ovarian it was over 100 µM; in the assay with LOX IMVI melanoma, 38.6 µM; with HCT-15 colon it was over 100 µM. For the same compound, the TGI in the assay on BT-549 breast was over 100 µM; in the assay with MDA-MB-435 it was over 100 µM; in the assay with SNB-75 CNS it was 79.6 µM; with NCI/ADR-RES ovarian, over 100 µM; with A549 NSCLC, over 100 µM; with COLO 205 colon it was over 100 µM.

Take `Cc1cc(OC(=O)Nc2ccc(Cl)cc2)ccc1C(=S)Nc1ccccc1`: the TGI in the assay with SF-295 CNS was over 100 µM; in the assay on CCRF-CEM leukemia, 58 µM; in the assay on 786-0 renal, over 100 µM; in the assay with UACC-62 melanoma it was over 100 µM; with MALME-3M melanoma, over 100 µM; in the assay on NCI-H522 lung it was over 100 µM. The TGI in the assay with UO-31 renal, in the assay with A498 renal, in the assay with ACHN renal, in the assay on OVCAR-3 ovarian, in the assay on OVCAR-8 ovarian and in the assay on LOX IMVI melanoma was over 100 µM in each case. For the same compound, the TGI in the assay with HCT-15 colon, with BT-549 breast, in the assay with MDA-MB-435, in the assay on SNB-75 CNS, with NCI/ADR-RES ovarian and in the assay with A549 NSCLC was over 100 µM throughout. The compound further displayed a TGI in the assay on COLO 205 colon of over 100 µM.

Turning to `N#Cc1c(N)nc2n[nH]c(N)c2c1-c1ccccc1`, the TGI in the assay on SF-295 CNS was 29.7 µM; with CCRF-CEM leukemia, over 100 µM; in the assay with 786-0 renal it was 69.8 µM; in the assay with UACC-62 melanoma, 8.02 µM; with MALME-3M melanoma it was 22 µM; in the assay on NCI-H522 lung, 18 µM. Also, the TGI in the assay with UO-31 renal is 32.3 µM; in the assay with A498 renal, 5.77 µM; with ACHN renal it was 28.9 µM; with OVCAR-3 ovarian, 20.5 µM; in the assay with OVCAR-8 ovarian, 41.8 µM; in the assay with NCI-H226 lung, over 79 µM. For the same compound, the TGI is 19 µM in the assay with LOX IMVI melanoma; over 77.8 µM in the assay with HCT-15 colon; 40.2 µM in the assay on BT-549 breast; 36.1 µM in the assay on MDA-MB-435; 48.5 µM in the assay on NCI/ADR-RES ovarian; over 65.5 µM in the assay with A549 NSCLC. In the assay on COLO 205 colon, this compound had a TGI of 24.3 µM.
